Measured values taken from patent US12533338B2, “Enhanced gene delivery to natural killer cells, hematopoietic stem cells and macrophages” (priority 2015, dated 2026).
Entries after “also recorded” stand apart in the source; their conditions may differ. Read-outs that look alike come from different tables or passages of the source.

What was measured:
[1] = test system: NK cells; assay: Dose dependence of lentiviral transduction with LeGO-G2 virus, GFP+ cells by flow cytometry; format: cell-based, human
Procedure: Primary human NK cells and NK-92 cells are transduced with LeGO-G2 virus in the presence of varying doses of BX795 or iX for 6 hours. GFP expression is analyzed by flow cytometry 72 hours after transduction. GFP+ cell percentages are shown on graph. Data from three independent experiments, each run in triplicates.
For each lentiviral transduction, 0.25×10^6 NK cells per well were seeded in a 24-well plate (BD Biosciences) and mixed with an appropriate amount of virus supernatant in the presence of 8 μg/ml of protamine sulfate (Sigma-Aldrich) or polybrene (Sigma-Aldrich) in a final volume of no more than 1 ml. The cytokines were replenished and plates were centrifuged at 1000×g for 1 hour at room temperature. After centrifugation, without removing viral supernatants, the plates were incubated at 37° C., 5% CO2 for 4-6 hours. At the end of the incubation, a second centrifugation at 1000×g for 1 hour at room temperature was carried out, after which the supernatants were removed from the wells and 1 ml of fresh NK cell growth medium (CellGro SCGM supplemented with 10% Human AB Serum) per well was added. The cells were maintained in this medium with daily addition cytokines (IL-2: 1000 U/ml, and IL-21: 20 ng/ml. Combinations of cytokines were used as indicated in FIG. 1. Only IL-2 and IL-21 were used in the rest of the experiments) for at least 3 days before acquisition of eGFP expression was carried out. In indicated experiments, the following inhibitors were present during the transduction: BX795 (Invivogen) and (5Z)-7-Oxozeaenol (iX) (Tocris).
For the transduction of cell lines, 2×10^5 cells per well were seeded into 24-well plates. Treatment with 6 μM BX795 and (5Z)-7-Oxozeaenol (iX) was initiated simultaneously with the transduction process. Appropriate amount of viral supernatants were added into the wells along with protamine sulfate (NK92, cells) and the total volume was adjusted to 500 μl. The plates were centrifuged at 1000×g for 1 hour followed by incubation at 37° C., 5% CO2 for 4-6 hours, after which the virus containing supernatant was removed and fresh growth media was added. The cells were grown for at least 3 days before acquisition of eGFP expression was carried out.
All antibody stainings for flow cytometry were done according to the following protocol: For surface stainings, the cells were washed once with PBS and incubated with appropriate amounts of antibody at 4° C. for 30 min. The labeled cells were then washed with PBS and fixed in 1% PFA prior to data acquisition. Data acquisition was done on a FACSCalibur (BD Biosciences), CyFlow ML (Partec GmbH, Munster, Germany) and LSRII-Fortessa (BD Biosciences) with standard filters. Data were analysed with the FlowJo software (TreeStar Inc.). […]

[2] = test system: NK cells; assay: Annexin-V/PI staining for toxicity; format: cell-based; settings: for toxicity on NK cells (apoptotic and dead cells) compared to DMSO controls: 1.5 μM; for toxicity on NK cells (apoptotic and dead cells): 6 μM
Description: FIG. 2B contains two bar graphs comparing apoptotic to dead Annexin −V^+/PI^−cells.
Remarkably, the use of iX at the optimum concentration presents no immediate toxic effects on NK cells as determined by Annexin-V/PI staining after […] treatment (FIG. 2b).

[3] = test system: RIG-I; assay: RIG-I expression at protein level during lentiviral transduction; format: cell-based; settings: for change in RIG-I expression at the protein level: after the 6 hour transduction period; for change in RIG-I expression: at 24 hours, FIG. 3
Description: (§1) FIG. 3 contains photos of a gel showing iX treatment during lentiviral transduction decreases RIG-I and IRF-3.

[4] = test system: IRF3; assay: IRF3 expression at protein level during lentiviral transduction; format: cell-based; settings: for change in IRF3 expression at the protein level: after the 6 hour transduction period; for change in IRF3 expression: at 24 hours, FIG. 3
Description: as §1

[5] = test system: NK92 cells; assay: IFNγ secretion upon exposure to lentiviral particles; format: cell-based, human; settings: FIG. 4
Description: FIG. 4 contains two bar graphs showing that iX treatment interferes with anti-viral cytokines IFNγ and TNF secretion.
(FIG. 4). […] (FIG. 4). […] (FIG. 4).

[6] = test system: NK-92 cells; assay: Gene expression profiling by RNAseq during lentiviral transduction; format: cell-based, human; settings: end of 6 hour transduction, FIGS. 6A-H
Procedure: Gene expression profiling by RNAseq for identification of pathways triggered by lentivirus entry in the absence and presence of small molecule inhibitors are assessed. NK-92 cells are transduced as previously described. At the end of the 6 hour transduction protocol, RNA from the cells is extracted and sequenced on a HiSeq 2500 instrument. After quality control, the reads are mapped to the human genome using the STAR aligner and gene abundance is estimated with HT-Seq. Differential expression is analyzed using DeSeq software. […] (FIG. 5).

[7] = test system: NK cells; settings: cited from earlier work
[8] = test system: primary human NK cells; assay: Lentiviral transduction (LeGO-G2, GFP expression) of primary NK cells; format: cell-based; settings: 6 μM during lentiviral transduction, FIG. 1
Procedure: (§2) FIG. 1 contains two bar graphs showing the inhibition of innate immune signaling with iX enhances lentiviral transduction efficiency in NK cells. NK-92 cells and primary human NK cells isolated from healthy donor PBMCs were subjected to lentiviral transduction in the presence of 6 μM BX795 or iX for 6 hours. GFP expression is acquired 72 hours later. +cell percentages are shown on graph.
[…]. Next day cells were transfected with 30 μg of LeGO-G2 plasmid (courtesy of Prof. Boris Fehse, University Medical Center Hamburg-Eppendorf, Hamburg, Germany), 15 μg of pMDLg/pRRE (Addgene, Cambridge, Mass., USA), 10 μg of pRSV-REV (Addgene) and 5 μg of phCMV-VSV-G (Addgene) using calcium phosphate transfection kit (Sigma-Aldrich) in the presence of 25 μM Chloroquine (Sigma-Aldrich). […]
The peripheral blood mononuclear cells (PBMCs) were isolated by gradient centrifugation, using Lymphoprep (Nyegaard, Oslo, Norway) and washed twice with phosphate-buffered saline (PBS) (GIBCO, Grand Island, N.Y., USA). Cell count and viability were assessed by Turk and Trypan Blue dye exclusion. […]
(§3) All antibody stainings for flow cytometry were done according to the following protocol: For surface stainings, the cells were washed once with PBS and incubated with appropriate amounts of antibody at 4° C. for 30 min. […] Data were analysed with the FlowJo software (TreeStar Inc.). […]

[9] = test system: NK-92 cells; assay: Lentiviral transduction (GFP expression) of NK-92 cell line; format: cell-based, human; settings: 6 μM during lentiviral transduction, NK-92, FIG. 1
Procedure: as §2
[…]. Next day cells were transfected with 30 μg of LeGO-G2 plasmid (courtesy of Prof. Boris Fehse, University Medical Center Hamburg-Eppendorf, Hamburg, Germany), 15 μg of pMDLg/pRRE (Addgene, Cambridge, Mass., USA), 10 μg of pRSV-REV (Addgene) and 5 μg of phCMV-VSV-G (Addgene) using calcium phosphate transfection kit (Sigma-Aldrich) in the presence of 25 μM Chloroquine (Sigma-Aldrich). 10 hours after transfection, the medium was changed and thereafter virus containing supernatant was collected every 24 hours for 2-3 days and stored in −80° C. until further use. A small aliquot from each production was used to determine viral titers by transduction of 293FT cells with serially diluted amounts of virus supernatant. […]
as §3

[10] = test system: CD34+ HSCs; assay: CRISPR/Cas9 gene editing of Beta 2 Microglobulin, loss of B2M expression by flow cytometry; format: cell-based, human; settings: 1 μM iX, hematopoietic stem cells, FIG. 7, n=4
Description: (§4) The recent emergence of the clustered, regularly interspaced, palindromic repeats (CRISPR) system for gene editing has the potential to overcome these limitations. The CRISPR technology utilizes a fixed nuclease, often the CRISPR-associated protein 9 (Cas9) from Streptococcus pyogenes, in combination with a short guide RNA (gRNA) to target the nuclease to a specific DNA sequence. We confirmed that gRNA recognition and thus editing efficacy could be increased with introduction of iX inhibitor. […]
(§5) The following commercially available guide RNAs from Origene Technologies were tested against Beta 2 Microglobulin: […] […] 48 hours post-transfection, cells were stained with anti-B2M antibody (clone:2M2, Biolegend) to compare loss of (32 m expression. Cells were then analysed using flowcytometry as described below.
as §3

[11] = test system: NK92 cell line; assay: as above; format: cell-based, human; settings: 1 μM iX, NK cells (NK92), FIG. 7, n=4
Description: as §4, §5, §3

[12] = test system: Human primary macrophages; assay: as above; format: cell-based; settings: 1 μM iX, FIG. 7, n=4
Description: as §4, §5, §3

Row | Compound | optimum dose for lentiviral gene delivery ([1]; NK cells) [µM] | toxicity on NK cells (apoptotic and dead cells) compared to DMSO controls [2] | toxicity on NK cells (apoptotic and dead cells) [2] | change in RIG-I expression at the protein level [3] | change in RIG-I expression [3] | change in IRF3 expression at the protein level [4] | change in IRF3 expression [4] | effect on anti-viral response pathways at mRNA level [6] | further results
1 | O=C(NCCCNc1nc(Nc2cccc(NC(=O)N3CCCC3)c2)ncc1I)c1cccs1 [BX795] | 6 | no toxicity | quite small but statistically significant increase | not detectable | significant decrease | not detectable | significant decrease | failed to fully suppress similar anti-viral responses | secretion of IFNγ ([5]; 24 hours after exposure to lentiviral particles): significantly trigger similar effect; transduction efficiency in NK cells ([7]; previously reported (Sutlu et al., 2012)): dramatically increases; effect of concentration on genetic modification efficiency ([7]; shown previously): dose-dependent effect
2 | COc1cc(O)c2c(c1)/C=C/C[C@H](O)[C@H](O)C(=O)/C=C\C[C@H](C)OC2=O [iX, (5Z)-7-Oxozeaenol] | 1.5 | no significant toxicity | no signs of immediate toxicity | not detectable | significant decrease | not detectable | significant decrease | affected pathways associated with anti-viral responses | improvement in lentiviral gene delivery [8]: statistically significant improvement; improvement in lentiviral gene delivery [9]: statistically significant improvement; enhancement of lentiviral gene delivery compared to BX795 ([1]; NK cells): to a further extent; also recorded: significantly higher extent; effect of concentration on genetic modification efficiency ([1]; varying doses, FIG. 2A): dose-dependent effect; β2M gene editing efficacy [10]: increased (32M editing significantly; β2M gene editing efficacy [11]: increased (32M editing significantly; β2M gene editing efficacy [12]: increased (32M editing significantly; extent of downregulation in RIG-I compared to BX795 [3]: significantly more; extent of downregulation in IRF3 compared to BX795 [4]: significantly more; secretion of IFNγ ([5]; six hours, during lentiviral gene delivery): significantly decreased
